Patent US20070173527A1, “HISTONE DEACETYLASE INHIBITORS” (priority 2006, published 2007)

Molecular target: HDAC2 (Homo sapiens, UniProt Q92769)
Assay: HDAC2 fluorescence inhibition assay (tBoc-Lys(Ac)-AMC)

Chain of HDAC2 (Q92769 whole entry): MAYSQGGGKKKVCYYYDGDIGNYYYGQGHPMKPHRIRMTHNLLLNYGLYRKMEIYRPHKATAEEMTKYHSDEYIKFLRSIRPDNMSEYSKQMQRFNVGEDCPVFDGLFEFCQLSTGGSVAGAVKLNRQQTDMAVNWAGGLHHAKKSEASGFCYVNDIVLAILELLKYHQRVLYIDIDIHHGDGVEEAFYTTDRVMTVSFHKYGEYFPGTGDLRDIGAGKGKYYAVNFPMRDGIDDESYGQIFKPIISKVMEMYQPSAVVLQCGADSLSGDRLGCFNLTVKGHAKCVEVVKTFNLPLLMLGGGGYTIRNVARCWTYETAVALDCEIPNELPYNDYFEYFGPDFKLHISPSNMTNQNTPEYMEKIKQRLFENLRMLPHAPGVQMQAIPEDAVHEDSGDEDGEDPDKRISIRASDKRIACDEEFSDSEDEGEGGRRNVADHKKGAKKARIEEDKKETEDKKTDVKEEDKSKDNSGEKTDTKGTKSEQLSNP

Structure (SMILES) | IC50 [nM]
Nc1ccccc1NC(=O)c1ccc(CSc2nc3ccncc3[nH]2)cc1 [Example 10, 4-((3H-imidazo[4,5-c]pyridin-2-ylthio)methyl)-N-(2-aminophenyl)benzamide] | < 100
Nc1ccccc1NC(=O)c1ccc(CSc2nc3cccnc3[nH]2)cc1 [Example 9, 4-((3H-imidazo[4,5-b]pyridin-2-ylthio)methyl)-N-(2-aminophenyl)benzamide] | < 100
CC(C)n1c(SCc2ccc(C(=O)Nc3ccccc3N)cc2)nc2ccccc21 [Example 7, N-(2-aminophenyl)-4-((1-isopropyl-1H-benzo[d]imidazol-2-ylthio)methyl)benzamide] | < 100
Nc1ccccc1NC(=O)c1ccc(COc2nc3cccnc3[nH]2)cc1 [Example 4, 4-((3H-imidazo[4,5-b]pyridin-2-yloxy)methyl)-N-(2-aminophenyl)benzamide] | 100 to 1000
Nc1ccccc1NC(=O)c1ccc(COc2nc3ccncc3[nH]2)cc1 [Example 11, 4-((3H-imidazo[4,5-c]pyridin-2-yloxy)methyl)-N-(2-aminophenyl)benzamide] | 100 to 1000
Nc1ccccc1NC(=O)c1ccc(CSc2nc3ccccc3[nH]2)cc1 [Example 3, 4-((1H-benzo[d]imidazol-2-ylthio)methyl)-N-(2-aminophenyl)benzamide] | 100 to 1000
Nc1ccccc1NC(=O)c1ccc(CSc2nc3ccccc3n2C2CCCCC2)cc1 [Example 8, N-(2-aminophenyl)-4-((1-cyclohexyl-1H-benzo[d]imidazol-2-ylthio)methyl)benzamide] | 100 to 1000
Nc1ccccc1NC(=O)c1ccc(CNc2nc3ccccc3[nH]2)cc1 [Example 2, 4-((1H-benzo[d]imidazol-2-ylamino)methyl)-N-(2-aminophenyl)benzamide] | < 100
Nc1ccccc1NC(=O)c1ccc(CS(=O)(=O)c2nc3ccccc3[nH]2)cc1 [Example 6, 4-((1H-benzo[d]imidazol-2-ylsulfonyl)methyl)-N-(2-aminophenyl)benzamide] | 100 to 1000
Nc1ccccc1NC(=O)c1ccc(C[S+]([O-])c2nc3ccccc3[nH]2)cc1 (centres unmarked) [Example 5, 4-((1H-benzo[d]imidazol-2-ylsulfinyl)methyl)-N-(2-aminophenyl)benzamide] | 100 to 1000
Nc1ccccc1NC(=O)c1ccc(COc2nc3cccnc3[nH]2)s1 [Example 12, 5-((3H-imidazo[4,5-b]pyridin-2-yloxy)methyl)-N-(2-aminophenyl)thiophene-2-carboxamide] | > 1000
